Source: US12128035B2, “Activating pyruvate kinase R” (Novo Nordisk Health Care AG, priority 2021, dated 2024)

System: 2,3-DPG blood levels
Assay: Phase 1 SAD/MAD: blood 2,3-DPG (LC-MS/MS) in healthy volunteers
Assay type: in vivo, human
Description: In this study, SAD/MAD cohorts are randomized (3 to 1) to receive Compound 1 or placebo (P). Compound 1 was evaluated first in 4 healthy SAD cohorts and 4 healthy MAD (14-day dosing period) cohorts. Based on the safety, and PK/PD profile from HS, Compound 1 is then evaluated in 1 SCD SAD cohort and 2 SCD MAD cohorts. Specifically, based on the safety and pharmacokinetic/pharmacodynamics (PK/PD) profile in healthy volunteer studies, Compound 1 is evaluated in patients (pts) with SCD, first in a single dose (SD or SAD) cohort and then in multiple-dose (MD or MAD) cohorts (14-day and 12-week). Safety assessments include AEs, vital signs, ECGs and laboratory parameters. PK/PD blood sampling was performed on Day 1 (SAD/MAD) and Day 14 (MAD) and up to 72 h after the last dose and at the end-of-study visit. PD parameters included 2,3-DPG, ATP, and p50 in all cohorts with additional PD studies (including oxygen scan) performed only in the SCD cohorts. PD parameters included 2,3-DPG, ATP, p50, RBC deformability with controlled deoxygenation and reoxygenation (Lorrca® oxygen scan) and varying osmolality (Lorrca® osmoscan)). To maintain study blind, pt identifiers were removed when needed.
In the SAD cohorts, the subjects' blood 2,3-DPG levels were measured periodically after dosing by a qualified LC-MS/MS method for the quantitation of 2,3-DPG in blood. Decreased 2,3-DPG blood levels were observed 6 hours following a single dose of Compound 1 at all dose levels (earlier timepoints were not collected). Maximum decreases in 2,3-DPG levels generally occurred ˜24 hours after the first dose with the reduction sustained ˜48-72 hr postdose. Table 15 reports the median percentage change in 2,3-DPG blood levels, relative to baseline, measured over time in healthy volunteers after a single dose of Compound 1 (200 mg, 400 mg, 700 mg, or 1000 mg) or placebo. Table 16 reports the mean percentage change in 2,3-DPG blood levels, relative to baseline, measured over time in healthy volunteers after a single dose of Compound 1 (200 mg, 400 mg, 700 mg, or 1000 mg). Accordingly, the median and mean reduction in the concentration of 2,3-DPG, relative to baseline, was at least about 30% at all dose levels tested 24 hours after administration of the single dose.
In the MAD cohorts, the subjects' blood 2,3-DPG levels were measured periodically after dosing by a qualified LC-MS/MS method for the quantitation of 2,3-DPG in blood. […] Table 18B reports the mean percentage change in 2,3-DPG blood levels, relative to baseline, measured over time after the first dose on days 1 and 14 in healthy volunteers who received daily doses of Compound 1 (100 mg BID, 200 mg BID, 300 mg BID, or 400 mg QD) for 14 days. Accordingly, the median and mean reduction in the concentration of 2,3-DPG, relative to baseline, was at least about 25% at all dose levels tested 24 hours after administration of the first dose on day 1 and at least about 40% at all dose levels tested 24 hours after administration of the first dose on day 14.
The following procedures are employed for the analysis of ATP and 2,3-DPG in human whole blood K2EDTA using a protein precipitation extraction procedure and analysis by LC-MS/MS.
The following procedures are used for sample extraction prior to analysis via LC-MS/MS. 15.0 μL of the calibration standards, quality controls, matrix blanks, and samples are aliquoted into a 96-well plate. 50.0 μL of the internal standard spiking solution is added to all samples on the plate, with the exception of the matrix blank samples; 50.0 μL of water is added to the matrix blank samples. Subsequently, 150 μL of water is added to all samples on the plate. The plate is then covered and agitated by vortex at high speed for ten minutes, after which 750 μL of methanol is added to all samples on the plate. The plate is covered and agitated by vortex for approximately 1 minute. The plate is then centrifuged at approximately 3500 RPM at approximately 4° C. for five minutes. […]

[1] = HV 100 mg BID, Day 1, 0 h after first daily dose
[2] = HV 100 mg BID, Day 1, 6 h after first daily dose
[3] = HV 100 mg BID, Day 1, 8 h after first daily dose
[4] = HV 100 mg BID, Day 1, 12 h after first daily dose
[5] = HV 100 mg BID, Day 1, 16 h after first daily dose
[6] = HV 100 mg BID, Day 1, 24 h after first daily dose
[7] = HV 100 mg BID, Day 14, 0 h after first daily dose
[8] = HV 100 mg BID, Day 14, 6 h after first daily dose
[9] = HV 100 mg BID, Day 14, 8 h after first daily dose
[10] = HV 100 mg BID, Day 14, 12 h after first daily dose
[11] = HV 100 mg BID, Day 14, 16 h after first daily dose
[12] = HV 100 mg BID, Day 14, 24 h after first daily dose
[13] = HV 100 mg BID, Day 14, 48 h after first daily dose
[14] = HV 100 mg BID, Day 14, 72 h after first daily dose
[15] = HV 200 mg BID, Day 1, 0 h after first daily dose
[16] = HV 200 mg BID, Day 1, 6 h after first daily dose
[17] = HV 200 mg BID, Day 1, 8 h after first daily dose
[18] = HV 200 mg BID, Day 1, 12 h after first daily dose
[19] = HV 200 mg BID, Day 1, 16 h after first daily dose
[20] = HV 200 mg BID, Day 1, 24 h after first daily dose
[21] = HV 200 mg BID, Day 14, 0 h after first daily dose
[22] = HV 200 mg BID, Day 14, 6 h after first daily dose
[23] = HV 200 mg BID, Day 14, 8 h after first daily dose
[24] = HV 200 mg BID, Day 14, 12 h after first daily dose
[25] = HV 200 mg BID, Day 14, 16 h after first daily dose
[26] = HV 200 mg BID, Day 14, 24 h after first daily dose
[27] = HV 200 mg BID, Day 14, 48 h after first daily dose
[28] = HV 200 mg BID, Day 14, 72 h after first daily dose
[29] = HV 300 mg BID, Day 1, 0 h after first daily dose
[30] = HV 300 mg BID, Day 1, 6 h after first daily dose
[31] = HV 300 mg BID, Day 1, 8 h after first daily dose
[32] = HV 300 mg BID, Day 1, 12 h after first daily dose
[33] = HV 300 mg BID, Day 1, 16 h after first daily dose
[34] = HV 300 mg BID, Day 1, 24 h after first daily dose
[35] = HV 300 mg BID, Day 14, 0 h after first daily dose
[36] = HV 300 mg BID, Day 14, 8 h after first daily dose
[37] = HV 300 mg BID, Day 14, 12 h after first daily dose
[38] = HV 300 mg BID, Day 14, 16 h after first daily dose
[39] = HV 300 mg BID, Day 14, 24 h after first daily dose
[40] = HV 300 mg BID, Day 14, 48 h after first daily dose
[41] = HV 300 mg BID, Day 14, 72 h after first daily dose
[42] = HV 400 mg QD, Day 1, 0 h after first daily dose
[43] = HV 400 mg QD, Day 1, 8 h after first daily dose
[44] = HV 400 mg QD, Day 1, 12 h after first daily dose
[45] = HV 400 mg QD, Day 1, 16 h after first daily dose
[46] = HV 400 mg QD, Day 1, 24 h after first daily dose
[47] = HV 400 mg QD, Day 14, 0 h after first daily dose

In the case of `O=C([C@H](CO)c1ccccc1)N1CC2=C(C1)CN(S(=O)(=O)c1cnc3c(c1)OCCO3)C2` (single isomer, unassigned) [Compound 1], the “Mean Percentage Change in 2,3-DPG Levels” value [1] is reported as 0%, the “Median Percentage Change in 2,3-DPG Levels” value (“Median Percentage Change” for short) [1] is reported as 0.0% and the “Mean Percentage Change in 2,3-DPG Levels” value [2] is reported as −15%. For the same compound, the “Median Percentage Change” value [2] was −16%, the “Mean Percentage Change in 2,3-DPG Levels” value [3] was −13% and the “Median Percentage Change” value [3] was −12%. For the same compound, the “Mean Percentage Change in 2,3-DPG Levels” value [4] was −18%, the “Median Percentage Change” value [4] was −18% and the “Mean Percentage Change in 2,3-DPG Levels” value [5] was −20%. For the same compound, the “Median Percentage Change” value [5] was −18%, the “Mean Percentage Change in 2,3-DPG Levels” value [6] was −29% and the “Median Percentage Change” value [6] was −28%. The “Mean Percentage Change in 2,3-DPG Levels” value [7] was −43%, the “Median Percentage Change” value [7] was −42.0% and the “Mean Percentage Change in 2,3-DPG Levels” value [8] was −44%. The “Median Percentage Change” value [8] was −44%, the “Mean Percentage Change in 2,3-DPG Levels” value [9] was −45% and the “Median Percentage Change” value [9] was −45%. For the same compound, the “Mean Percentage Change in 2,3-DPG Levels” value [10] was −44%, the “Median Percentage Change” value [10] was −44% and the “Mean Percentage Change in 2,3-DPG Levels” value [11] was −42%. The “Median Percentage Change” value [11] was −44%, the “Mean Percentage Change in 2,3-DPG Levels” value [12] was −43% and the “Median Percentage Change” value [12] was −44%. For the same compound, the “Mean Percentage Change in 2,3-DPG Levels” value [13] was −32%, the “Median Percentage Change” value [13] was −35% and the “Mean Percentage Change in 2,3-DPG Levels” value [14] was −22%. For the same compound, the “Median Percentage Change” value [14] was −20%, the “Mean Percentage Change in 2,3-DPG Levels” value [15] was 0% and the “Median Percentage Change” value [15] was 0.0%. The “Mean Percentage Change in 2,3-DPG Levels” value [16] was −16%, the “Median Percentage Change” value [16] was −13% and the “Mean Percentage Change in 2,3-DPG Levels” value [17] was −19%. The “Median Percentage Change” value [17] was −22%, the “Mean Percentage Change in 2,3-DPG Levels” value [18] was −22% and the “Median Percentage Change” value [18] was −23%. The “Mean Percentage Change in 2,3-DPG Levels” value [19] was −33%, the “Median Percentage Change” value [19] was −34% and the “Mean Percentage Change in 2,3-DPG Levels” value [20] was −45%. For the same compound, the “Median Percentage Change” value [20] was −48%, the “Mean Percentage Change in 2,3-DPG Levels” value [21] was −49% and the “Median Percentage Change” value [21] was −49%. For the same compound, the “Mean Percentage Change in 2,3-DPG Levels” value [22] was −49%, the “Median Percentage Change” value [22] was −49% and the “Mean Percentage Change in 2,3-DPG Levels” value [23] was −47%. For the same compound, the “Median Percentage Change” value [23] was −44%, the “Mean Percentage Change in 2,3-DPG Levels” value [24] was −43% and the “Median Percentage Change” value [24] was −42%. For the same compound, the “Mean Percentage Change in 2,3-DPG Levels” value [25] was −49%, the “Median Percentage Change” value [25] was −43% and the “Mean Percentage Change in 2,3-DPG Levels” value [26] was −47%. For the same compound, the “Median Percentage Change” value [26] was −48%, the “Mean Percentage Change in 2,3-DPG Levels” value [27] was −40% and the “Median Percentage Change” value [27] was −39%. The “Mean Percentage Change in 2,3-DPG Levels” value [28] was −23%, the “Median Percentage Change” value [28] was −20% and the “Mean Percentage Change in 2,3-DPG Levels” value [29] was 0%. The “Median Percentage Change” value [29] was 0.0%, the “Mean Percentage Change in 2,3-DPG Levels” value [30] was −20% and the “Median Percentage Change” value [30] was −19%. For the same compound, the “Mean Percentage Change in 2,3-DPG Levels” value [31] was −22%, the “Median Percentage Change” value [31] was −24% and the “Mean Percentage Change in 2,3-DPG Levels” value [32] was −31%. The “Median Percentage Change” value [32] was −32%, the “Mean Percentage Change in 2,3-DPG Levels” value [33] was −39% and the “Median Percentage Change” value [33] was −41%. For the same compound, the “Mean Percentage Change in 2,3-DPG Levels” value [34] was −47%, the “Median Percentage Change” value [34] was −51% and the “Mean Percentage Change in 2,3-DPG Levels” value [35] was −57%. The “Median Percentage Change” value [35] was −59%, the “Mean Percentage Change in 2,3-DPG Levels” value (HV 300 mg BID, Day 14, 6 h after first daily dose) was −56% and the “Mean Percentage Change in 2,3-DPG Levels” value [36] was −55%. For the same compound, the “Median Percentage Change” value [36] was −55%, the “Mean Percentage Change in 2,3-DPG Levels” value [37] was −54% and the “Median Percentage Change” value [37] was −55%. The “Mean Percentage Change in 2,3-DPG Levels” value [38] was −53%, the “Median Percentage Change” value [38] was −52% and the “Mean Percentage Change in 2,3-DPG Levels” value [39] was −52%. For the same compound, the “Median Percentage Change” value [39] was −53%, the “Mean Percentage Change in 2,3-DPG Levels” value [40] was −43% and the “Median Percentage Change” value [40] was −45%. The “Mean Percentage Change in 2,3-DPG Levels” value [41] was −34%, the “Median Percentage Change” value [41] was −33% and the “Mean Percentage Change in 2,3-DPG Levels” value [42] was 0%. For the same compound, the “Median Percentage Change” value [42] was 0.0%, the “Mean Percentage Change in 2,3-DPG Levels” value (HV 400 mg QD, Day 1, 6 h after first daily dose) was −26% and the “Mean Percentage Change in 2,3-DPG Levels” value [43] was −29%. For the same compound, the “Median Percentage Change” value [43] was −27%, the “Mean Percentage Change in 2,3-DPG Levels” value [44] was −38% and the “Median Percentage Change” value [44] was −38%. For the same compound, the “Mean Percentage Change in 2,3-DPG Levels” value [45] was −42%, the “Median Percentage Change” value [45] was −41% and the “Mean Percentage Change in 2,3-DPG Levels” value [46] was −48%. The “Median Percentage Change” value [46] was −48%, the “Mean Percentage Change in 2,3-DPG Levels” value [47] was −52% and the “Median Percentage Change” value [47] was −51%. The “Mean Percentage Change in 2,3-DPG Levels” value (HV 400 mg QD, Day 14, 6 h after first daily dose) was −54%.
